# Data as given in the Bradley open melting point set (2014).
# Where “and” joins values, the source holds several entries; their conditions need not be identical. Equal values may be shown once.
row,SMILES,melting point
1,Nc1ccccc1N [o-phenylenediamine],102 °C
2,c1ccc(-c2ccccc2-c2ccccc2)cc1 [o-terphenyl],57 °C
3,Cc1ccccc1N [o-toluidine],-24 °C
4,COc1cccc(C=O)c1O [o-vanillin],44.5 °C
5,C=Cc1ccccc1O [o-vinyl_phenol],29 °C
6,CCCCCCCC#N [octanenitrile],-45 °C
7,c1ccc([Si]2(c3ccccc3)O[Si](c3ccccc3)(c3ccccc3)O[Si](c3ccccc3)(c3ccccc3)O[Si](c3ccccc3)(c3ccccc3)O2)cc1 [octaphenylcyclotetrasiloxane],201 °C
8,COc1ccc2[nH]c(S(=O)Cc3ncc(C)c(OC)c3C)nc2c1 (centres undefined) [omeprazole],156 °C
9,"O=C(O)c1cc(=O)[nH]c(=O)[nH]1 [orotic acid, anhydrous]",346 °C
10,O=C(O)c1cc(=O)[nH]c(=O)[nH]1 [orotic acid] [listing 1 of 2 here],346 °C
11,O=C(O)c1cc(=O)[nH]c(=O)[nH]1 [orotic acid] [listing 2 of 2 here],345 °C
12,CC(C)NCC1CCc2cc(CO)c([N+](=O)[O-])cc2N1 (centres undefined) [oxamniquine],148 °C
13,CCCOc1ccc2[nH]c(NC(=O)OC)nc2c1 [oxibendazole],230 °C
14,"Brc1ccc(-c2ccc(Br)cc2)cc1 [p,p'-dibromobiphenyl]",170 °C
15,ON=Cc1ccc(O)cc1 [p-Hydroxybenzaldehyde oxime],112 °C
16,CC(=O)Oc1ccc(C(C)=O)cc1 [p-acetoxy_acetophenone],54 °C
17,CC(=O)Oc1ccc(CC#N)cc1 [p-acetoxy_phenylacetonitrile],50 °C
18,CC(=O)Oc1ccc(C(N)=O)cc1 [p-acetoxybenzamide],179 °C
19,CC(=O)c1ccc(C#N)cc1 [p-acetyl_benzonitrile],59 °C
20,C=Cc1ccc(C(C)=O)cc1 [p-acetylstyrene],37 °C
21,Nc1ccc(C(=O)O)cc1 [p-aminobenzoic_acid],189 °C
22,Nc1ccc(O)cc1 [p-aminophenol],189 °C
23,COc1ccc(C=O)cc1 [p-anisaldehyde],1 °C
24,COc1ccc(N)cc1 [p-anisidine] [listing 1 of 2 here],58 °C
25,COc1ccc(N)cc1 [p-anisidine] [listing 2 of 2 here],59 °C
26,N#Cc1ccc(Cc2ccccc2)cc1 [p-benzyl_benzonitrile],51 °C
27,O=Cc1ccc(Br)cc1 [p-bromobenzaldehyde],57 °C

row,SMILES,melting point
1,O=C(O)c1ccc(Br)cc1 [p-bromobenzoic acid],252 °C
2,O=C(O)c1ccc(Br)cc1 [p-bromobenzoic_acid],253 °C
3,CC(C)c1ccc(Cl)cc1 [p-chlorocumene],-12 °C
4,N#Cc1ccc(CO)cc1 [p-cyano_benzyl_alcohol],42 °C
5,CC(C)(C)c1ccc(C(C)(C)C)cc1 [p-di-tert-butylbenzene],74 °C
6,Clc1ccc(Cl)cc1 [p-dichlorobenzene],53 °C
7,O=Cc1ccc(I)cc1 [p-iodobenzaldehyde],78 °C
8,Oc1ccc(I)cc1 [p-iodophenol],94 °C
9,CC(=O)c1ccc([N+](=O)[O-])cc1 [p-nitroacetophenone],80 °C
10,O=Cc1ccc([N+](=O)[O-])cc1 [p-nitrobenzaldehyde],108 °C
11,O=C(O)c1ccc([N+](=O)[O-])cc1 [p-nitrobenzoic_acid],241 °C
12,O=[N+]([O-])c1ccc(O)cc1 [p-nitrophenol],115 °C
13,O=C(O)c1ccc(-c2ccccc2)cc1 [p-phenylbenzoic_acid],227 °C
14,c1ccc(-c2ccc(-c3ccccc3)cc2)cc1 [p-terphenyl] [listing 1 of 2 here],213 °C
15,c1ccc(-c2ccc(-c3ccccc3)cc2)cc1 [p-terphenyl] [listing 2 of 2 here],214 °C
16,Cc1ccc(C=O)cc1 [p-tolualdehyde],-6 °C
17,Cc1ccc(S(=O)(=O)O)cc1 [p-toluenesulfonic acid],104 °C
18,Cc1ccc(S(=O)(=O)Cl)cc1 [p-toluenesulfonyl chloride],69 °C
19,Cc1ccc(S(=O)(=O)CC(=O)O)cc1 [p-toluenesulfonylacetic acid],118 °C
20,[C-]#[N+]CS(=O)(=O)c1ccc(C)cc1 [p-toluenesulfonylmethyl isocyanide] [listing 1 of 2 here],112 °C
21,[C-]#[N+]CS(=O)(=O)c1ccc(C)cc1 [p-toluenesulfonylmethyl isocyanide] [listing 2 of 2 here],112 °C
22,Cc1ccc(C(=O)Cl)cc1 [p-toluoyl chloride],-2 °C
23,CC(C)(S)[C@@H](N)C(=O)O [penicillamine],204 °C
24,ClC(Cl)C(Cl)(Cl)Cl [pentachloroethane],-29 °C
25,O=[N+]([O-])c1c(Cl)c(Cl)c(Cl)c(Cl)c1Cl [pentachloronitrobenzene],144 °C
26,O=C1CCCCCCCCCCCCCCO1 [pentadecanolide],35 °C
27,OCC(CO)(CO)CO [pentaerythritol],262 °C

row,SMILES,melting point
1,ClCC(CCl)(CCl)CCl [pentaerythrityl tetrachloride],95 °C
2,CCCCC=O [pentanal],-91 °C
3,CCCCC(=O)O [pentanoic_acid],-34 °C
4,c1ccc(C2=C(c3ccccc3)C(c3ccccc3)C(c3ccccc3)=C2c2ccccc2)cc1 [pentaphenylcyclopentadiene],256 °C
5,C/C(C)=CCN2CC[C@@]1(C)c3cc(O)ccc3C[C@@H]2[C@@H]1C [pentazocin],146 °C
6,FC(F)(F)C(F)(F)C(F)(F)C(F)(F)C(F)(F)C(F)(F)F [perfluorohexanes],-90 °C
7,[O-][I+3]([O-])([O-])O [periodic acid],128 °C
8,c1ccc2c(c1)ccc1ccccc12 [phenanthracene],99 °C
9,c1ccc2c(c1)ccc1ccccc12 [phenanthrene] [listing 1 of 2 here],99.2 °C and 101 °C and 99 °C
10,c1ccc2c(c1)ccc1ccccc12 [phenanthrene] [listing 2 of 2 here],100 °C
11,Nc1ccc(N=Nc2ccccc2)c(N)n1 [phenazopyridine],139 °C
12,CCN(CC)CCSC(=O)N(c1ccccc1)c1ccccc1 [phencarbamide],48 °C
13,CCC1(c2ccccc2)C(=O)NC(=O)NC1=O [phenobarbital] [listing 1 of 2 here],175 °C
14,CCC1(c2ccccc2)C(=O)NC(=O)NC1=O [phenobarbital] [listing 2 of 2 here],174 °C and 176 °C
15,CCOc1ccc(NC(=O)CN)cc1 [phenocoll],101 °C
16,Oc1ccccc1 [phenol],41 °C
17,c1ccc2c(c1)Oc1ccccc1S2 [phenoxathiin],57 °C
18,O=C(O)COc1ccccc1 [phenoxyacetic acid],100 °C
19,ON=C(c1ccccc1)c1ccccn1 [phenyl 2-pyridyl ketoxime],155 °C
20,O=CCc1ccccc1 [phenylacetaldehyde],-10 °C
21,O=C1NC(=O)C(c2ccccc2)(c2ccccc2)N1 [phenytoin],296 °C and 295 °C
22,O=C1OC(=O)c2ccccc21 [phthalic anhydride],132 °C
23,N#Cc1ccccc1C#N [phthalonitrile],140 °C
24,O=c1[nH]c2ccccc2n1C1CCN(CCCC(c2ccc(F)cc2)c2ccc(F)cc2)CC1 [pimozide],216 °C
25,CC(C)NCC(O)COc1cccc2[nH]ccc12 (centres undefined) [pindolol],170 °C
